Assays:
Assay type in all cases: biochemical
JAK2 = target: T1, JAK2 (Homo sapiens, UniProt O60674); test: Z'-LYTE kinase assay JAK2
T1 construct: 5 μl of catalytic domain recombinant Kinase enzyme+Tyr peptide substrate (Invitrogen, CA); purchased Invitrogen
Summary of the method: (§1)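 In duplicate wells, each test molecule (1% final DMSO) is incubated with recombinant kinase catalytic domain, Tyr6 peptide substrate and ATP for one hour at room temperature; a site-specific protease is then added for another hour before fluorescence reading.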

JAK1 = target: T2, JAK1 (Homo sapiens, UniProt P23458); test: Z'-LYTE kinase assay JAK1
T2 construct: 5 μl of catalytic domain recombinant Kinase enzyme+Tyr peptide substrate (Invitrogen, CA); purchased Invitrogen
T2 sequence (P23458 875-1153 limits assumed): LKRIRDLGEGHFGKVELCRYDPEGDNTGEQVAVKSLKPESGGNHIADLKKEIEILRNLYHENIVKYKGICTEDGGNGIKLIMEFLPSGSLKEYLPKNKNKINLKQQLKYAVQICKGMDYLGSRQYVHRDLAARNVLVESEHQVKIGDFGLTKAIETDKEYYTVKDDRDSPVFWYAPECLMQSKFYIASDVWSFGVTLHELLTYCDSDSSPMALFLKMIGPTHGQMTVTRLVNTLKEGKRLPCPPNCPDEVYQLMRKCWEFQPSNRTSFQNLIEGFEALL
Summary of the method: as §1

JAK3 = target: T3, JAK3 (Homo sapiens, UniProt P52333); test: Z'-LYTE kinase assay JAK3
T3 construct: 5 μl of catalytic domain recombinant Kinase enzyme+Tyr peptide substrate (Invitrogen, CA); purchased Invitrogen
T3 sequence (P52333 822-1111 limits assumed): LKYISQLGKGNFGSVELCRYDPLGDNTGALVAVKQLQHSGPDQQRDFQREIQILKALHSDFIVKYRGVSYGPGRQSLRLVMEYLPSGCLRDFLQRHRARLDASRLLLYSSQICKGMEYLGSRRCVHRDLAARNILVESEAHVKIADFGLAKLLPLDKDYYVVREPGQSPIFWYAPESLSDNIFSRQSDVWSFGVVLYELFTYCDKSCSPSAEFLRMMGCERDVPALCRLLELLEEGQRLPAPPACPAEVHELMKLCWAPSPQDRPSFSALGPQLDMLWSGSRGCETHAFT
Summary of the method: as §1

T1 sequence (O60674 849-1124 limits assumed): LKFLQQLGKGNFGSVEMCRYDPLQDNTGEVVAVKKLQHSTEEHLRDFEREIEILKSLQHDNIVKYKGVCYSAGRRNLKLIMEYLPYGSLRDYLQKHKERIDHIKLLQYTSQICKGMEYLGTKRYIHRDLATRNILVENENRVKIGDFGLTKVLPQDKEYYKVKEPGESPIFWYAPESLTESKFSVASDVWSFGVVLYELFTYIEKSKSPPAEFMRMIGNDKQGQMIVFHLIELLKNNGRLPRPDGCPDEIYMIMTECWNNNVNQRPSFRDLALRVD

SMILES	IC50 (JAK2)	IC50 (JAK1)	IC50 (JAK3)
N#CCN1CCC(c2ccc(Nc3cc(NCc4cc(F)ccc4F)c(C(N)=O)cn3)cc2)CC1 [Example 218, 6-(4-(1-(cyanomethyl)piperidin-4-yl)phenylamino)-4-(2,5-difluorobenzylamino)nicotinamide]	10 to 100 nM	100 to 1000 nM	1 to 10 nM
CS(=O)(=O)N1CCC(c2cccc(Nc3cc(NCc4ccccc4F)c(C(N)=O)cn3)c2)CC1 [Example 121, 4-(2-fluorobenzylamino)-6-(3-(1-(methylsulfonyl)piperidin-4-yl)phenylamino)nicotinamide]	100 to 1000 nM	100 to 1000 nM	10 to 100 nM
N#CCc1cccc(Nc2cc(NCc3ccccc3)c(C(N)=O)cn2)c1 [Example 387]	100 to 1000 nM	100 to 1000 nM	1 to 10 nM
CC(=O)N1CCN(c2ccc(Nc3cc(N[C@H]4CC[C@@H](O)CC4)c(C(N)=O)cn3)cc2)CC1 [Example 123, 6-(4-(4-acetylpiperazin-1-yl)phenylamino)-4-((cis)-4-hydroxycyclohexylamino)nicotinamide]	100 to 1000 nM	100 to 1000 nM	10 to 100 nM
CN(C)S(=O)(=O)NCc1ccc(Nc2cc(NCc3cccc4ccsc34)c(C(N)=O)cn2)cc1 [Example 355, 4-(benzo[b]thiophen-7-ylmethylamino)-6-(4-((N,N-dimethylsulfamoylamino)methyl)phenylamino)nicotinamide]	100 to 1000 nM	100 to 1000 nM	1 to 10 nM
NC(=O)c1cnc(Nc2ccc(C3CCOCC3)cc2)cc1NCC1CC1 [Example 153, 4-(cyclopropylmethylamino)-6-(4-(tetrahydro-2H-pyran-4-yl)phenylamino)nicotinamide]	100 to 1000 nM	> 1000 nM	100 to 1000 nM
Cc1cc(Nc2cc(NCc3cccc4cc[nH]c34)c(C(N)=O)cn2)ccc1C(=O)N1CCC1 [Example 463, 4-((1H-indol-7-yl)methylamino)-6-(4-(azetidine-1-carbonyl)-3-methylphenylamino)nicotinamide]	10 to 100 nM	> 1000 nM	1 to 10 nM
NC(=O)c1cnc(Nc2ccc(C3CCOCC3)cc2)cc1NC1CCCCC1 [Example 157, 4-(cyclohexylamino)-6-(4-(tetrahydro-2H-pyran-4-yl)phenylamino)nicotinamide]	> 1000 nM	> 1000 nM	100 to 1000 nM
CN(C)C(=O)c1ccc(Nc2cc(NCc3cccc(-c4ccccn4)c3)c(C(N)=O)cn2)cc1 [Example 421, 6-(4-(dimethylcarbamoyl)phenylamino)-4-(3-(pyridine-2-yl)benzylamino)nicotinamide]	100 to 1000 nM	> 1000 nM	10 to 100 nM
COC[C@@H](Nc1cc(Nc2cccc(N3CCOCC3)c2)ncc1C(N)=O)c1ccccc1 [Example 261, (S)-4-(2-methoxy-1-phenylethylamino)-6-(3-morpholinophenylamino)nicotinamide]	100 to 1000 nM	> 1000 nM	10 to 100 nM
CCC(=O)N1CCC(c2ccc(Nc3cc(N[C@H](C)C(C)(C)C)c(C(N)=O)cn3)cc2)CC1 [Example 190, (R)-4-(3,3-dimethylbutan-2-ylamino)-6-(4-(1-propionylpiperidin-4-yl)phenylamino)nicotinamide]	10 to 100 nM	10 to 100 nM	1 to 10 nM
N#CCOc1cccc(Nc2cc(NCc3ccccc3)c(C(N)=O)cn2)c1 [Example 383]	100 to 1000 nM	100 to 1000 nM	10 to 100 nM
CCC(=O)N1CCC(Nc2cc(Nc3ccc(C4CCOCC4)cc3)ncc2C(N)=O)CC1 [Example 164, 4-(1-propionylpiperidin-4-ylamino)-6-(4-(tetrahydro-2H-pyran-4-yl)phenylamino)nicotinamide]	> 1000 nM	> 1000 nM	> 1000 nM
COCC(=O)N1CC(c2ccc(Nc3cc(NCc4cccc(F)n4)c(C(N)=O)cn3)cc2)C1 [Example 493, 4-((6-fluoropyridin-2-yl)methylamino)-6-(4-(1-(2-methoxyacetyl)azetidin-3-yl)phenylamino)nicotinamide]	100 to 1000 nM	100 to 1000 nM	10 to 100 nM
CC(=O)Nc1ccc(Nc2cc(NCc3cccc4cc[nH]c34)c(C(N)=O)cn2)cc1 [Example 473, 4-((1H-indol-7-yl)methylamino)-6-(4-acetamidophenylamino)nicotinamide]	100 to 1000 nM	100 to 1000 nM	10 to 100 nM
CCC(=O)N(C)c1ccc(Nc2cc(NCc3cccc4[nH]ccc34)c(C(N)=O)cn2)cc1 [Example 475, 4-((1H-indol-4-yl)methylamino)-6-(4-(N-methylpropionamido)phenylamino)nicotinamide]	10 to 100 nM	10 to 100 nM	1 to 10 nM
NC(=O)c1cnc(Nc2ccc(N3CCCCC3)cc2)cc1NC1(c2ccccc2)CC1 [Example 362]	> 1000 nM	> 1000 nM	10 to 100 nM
CC(=O)N1CCC[C@H](CNc2cc(Nc3ccc(F)c(C(=O)N4CCC4)c3)ncc2C(N)=O)C1 [Example 444, (R)-4-((1-acetylpiperidin-3-yl)methylamino)-6-(3-(azetidine-1-carbonyl)-4-fluorophenylamino)nicotinamide]	> 1000 nM	> 1000 nM	100 to 1000 nM
NC(=O)c1cnc(Nc2ccc3ncccc3c2)cc1NCc1ccccc1 [Example 86, 4-(benzylamino)-6-(quinolin-6-ylamino)nicotinamide]	> 1000 nM	> 1000 nM	10 to 100 nM
CS(=O)(=O)NCc1ccc(Nc2cc(NCc3cccc4ccsc34)c(C(N)=O)cn2)cc1 [Example 353, 4-(benzo[b]thiophen-7-ylmethylamino)-6-(4-(methylsulfonamidomethyl)phenylamino)nicotinamide]	10 to 100 nM	100 to 1000 nM	1 to 10 nM
CCC(=O)N1CCC(c2ccc(Nc3cc(NCc4cccc(F)c4)c(C(N)=O)cn3)cc2)CC1 [Example 145, 4-(3-fluorobenzylamino)-6-(4-(1-propionylpiperidin-4-yl)phenylamino)nicotinamide]	10 to 100 nM	> 1000 nM	1 to 10 nM
COc1ccc(Nc2cc(N[C@H]3CCCN(C(C)=O)C3)c(C(N)=O)cn2)cc1 [Example 36, (S)-4-(1-acetylpiperidin-3-ylamino)-6-(4-methoxyphenylamino)nicotinamide]	> 1000 nM	> 1000 nM	> 1000 nM
CN(C)C(=O)c1ccc(Nc2cc(NCc3cccc(-c4cccnc4)c3)c(C(N)=O)cn2)cc1 [Example 414, 6-(4-(dimethylcarbamoyl)phenylamino)-4-(3-(pyridine-3-yl)benzylamino)nicotinamide]	100 to 1000 nM	100 to 1000 nM	1 to 10 nM
C[C@@H](Nc1cc(Nc2ccc(C3CCOCC3)cc2)ncc1C(N)=O)C(C)(C)C [Example 168, (R)-4-(3,3-dimethylbutan-2-ylamino)-6-(4-(tetrahydro-2H-pyran-4-yl)phenylamino)nicotinamide]	10 to 100 nM	100 to 1000 nM	10 to 100 nM
CC(=O)N1CCN(c2cccc(N(C(C)=O)c3cc(NC4(c5ccccc5)CC4)c(C(N)=O)cn3)c2)CC1 [Example 372, 6-(N-(3-(4-acetylpiperazin-1-yl)phenyl)acetamino)-4-(1-phenylcyclopropylamino)nicotinamide]	> 1000 nM	> 1000 nM	> 1000 nM
